Drawing on the Kinase Knowledgebase extract (Sharma et al. 2016), this text covers IC50 for 28 compounds.

One assay addresses PIK3CB (Human) (UniProt P42338). The experiment in a line: Enzyme Assay.
Assay [1] has as its target PIK3CD (Human) (UniProt O00329). Briefly: Enzyme Assay.
The next assay deals with PIK3CG (human) (UniProt P48736). Briefly: Enzyme Assay.
Assay [2] has as its target PIK3CD (Human) (UniProt O00329). The experiment in a line: Cell-Based Assay. The note with it: raji.

Structures are written as SMILES.

Sequence of PIK3CG (human) (P48736 whole entry, looked up): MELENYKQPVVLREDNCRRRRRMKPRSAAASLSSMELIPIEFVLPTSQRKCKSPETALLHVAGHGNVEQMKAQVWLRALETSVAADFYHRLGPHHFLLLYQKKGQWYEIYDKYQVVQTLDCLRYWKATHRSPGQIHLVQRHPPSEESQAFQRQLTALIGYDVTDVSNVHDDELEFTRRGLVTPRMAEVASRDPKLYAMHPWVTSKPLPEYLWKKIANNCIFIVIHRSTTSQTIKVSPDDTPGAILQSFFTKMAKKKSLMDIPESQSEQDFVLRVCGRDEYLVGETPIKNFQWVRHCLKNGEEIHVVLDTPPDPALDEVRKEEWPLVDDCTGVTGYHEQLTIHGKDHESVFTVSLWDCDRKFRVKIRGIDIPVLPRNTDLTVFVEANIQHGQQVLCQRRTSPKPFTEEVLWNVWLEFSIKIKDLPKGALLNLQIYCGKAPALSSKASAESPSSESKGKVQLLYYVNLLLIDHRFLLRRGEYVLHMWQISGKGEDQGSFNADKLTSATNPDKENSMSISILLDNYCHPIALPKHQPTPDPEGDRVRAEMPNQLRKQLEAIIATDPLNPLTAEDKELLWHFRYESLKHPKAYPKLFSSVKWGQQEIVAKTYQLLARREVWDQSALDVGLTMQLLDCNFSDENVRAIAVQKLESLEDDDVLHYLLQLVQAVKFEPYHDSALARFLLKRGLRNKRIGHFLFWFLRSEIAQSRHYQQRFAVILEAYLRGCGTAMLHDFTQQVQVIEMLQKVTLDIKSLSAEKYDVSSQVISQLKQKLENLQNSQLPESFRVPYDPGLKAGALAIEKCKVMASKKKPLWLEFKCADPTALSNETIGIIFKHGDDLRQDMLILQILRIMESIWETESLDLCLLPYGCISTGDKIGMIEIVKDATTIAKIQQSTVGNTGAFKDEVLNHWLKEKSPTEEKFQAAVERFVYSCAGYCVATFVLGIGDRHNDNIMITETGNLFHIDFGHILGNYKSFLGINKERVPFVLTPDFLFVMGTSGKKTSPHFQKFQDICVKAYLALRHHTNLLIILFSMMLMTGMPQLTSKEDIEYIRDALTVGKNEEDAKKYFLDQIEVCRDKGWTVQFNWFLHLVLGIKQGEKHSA
Sequence of PIK3CD (Human) (O00329 whole entry, looked up): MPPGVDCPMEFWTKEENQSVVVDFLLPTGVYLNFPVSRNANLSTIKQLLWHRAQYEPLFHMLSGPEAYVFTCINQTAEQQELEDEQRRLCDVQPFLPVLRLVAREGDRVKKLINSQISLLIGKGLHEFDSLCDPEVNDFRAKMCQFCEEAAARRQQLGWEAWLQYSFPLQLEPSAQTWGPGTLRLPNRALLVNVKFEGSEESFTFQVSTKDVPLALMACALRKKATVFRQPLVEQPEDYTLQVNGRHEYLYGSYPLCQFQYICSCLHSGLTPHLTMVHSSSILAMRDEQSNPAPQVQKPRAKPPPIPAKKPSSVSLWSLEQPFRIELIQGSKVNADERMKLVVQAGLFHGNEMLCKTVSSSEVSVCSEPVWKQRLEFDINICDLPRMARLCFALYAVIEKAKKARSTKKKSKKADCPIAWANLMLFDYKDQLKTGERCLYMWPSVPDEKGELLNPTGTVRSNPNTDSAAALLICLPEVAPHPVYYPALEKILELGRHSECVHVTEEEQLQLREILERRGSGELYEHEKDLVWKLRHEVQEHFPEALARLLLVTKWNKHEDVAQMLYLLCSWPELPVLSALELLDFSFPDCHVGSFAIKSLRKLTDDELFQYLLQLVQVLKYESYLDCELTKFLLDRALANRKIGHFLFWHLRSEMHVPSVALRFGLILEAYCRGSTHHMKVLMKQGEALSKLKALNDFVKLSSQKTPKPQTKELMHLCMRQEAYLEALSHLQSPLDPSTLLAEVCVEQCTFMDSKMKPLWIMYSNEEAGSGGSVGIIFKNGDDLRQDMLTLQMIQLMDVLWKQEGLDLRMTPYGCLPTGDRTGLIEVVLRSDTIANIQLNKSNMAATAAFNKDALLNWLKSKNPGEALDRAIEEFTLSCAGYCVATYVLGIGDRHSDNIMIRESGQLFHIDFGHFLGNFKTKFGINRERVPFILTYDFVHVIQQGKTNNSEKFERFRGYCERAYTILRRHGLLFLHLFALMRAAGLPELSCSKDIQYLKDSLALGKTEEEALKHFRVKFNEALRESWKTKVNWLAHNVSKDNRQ
Sequence of PIK3CB (Human) (P42338 whole entry, looked up): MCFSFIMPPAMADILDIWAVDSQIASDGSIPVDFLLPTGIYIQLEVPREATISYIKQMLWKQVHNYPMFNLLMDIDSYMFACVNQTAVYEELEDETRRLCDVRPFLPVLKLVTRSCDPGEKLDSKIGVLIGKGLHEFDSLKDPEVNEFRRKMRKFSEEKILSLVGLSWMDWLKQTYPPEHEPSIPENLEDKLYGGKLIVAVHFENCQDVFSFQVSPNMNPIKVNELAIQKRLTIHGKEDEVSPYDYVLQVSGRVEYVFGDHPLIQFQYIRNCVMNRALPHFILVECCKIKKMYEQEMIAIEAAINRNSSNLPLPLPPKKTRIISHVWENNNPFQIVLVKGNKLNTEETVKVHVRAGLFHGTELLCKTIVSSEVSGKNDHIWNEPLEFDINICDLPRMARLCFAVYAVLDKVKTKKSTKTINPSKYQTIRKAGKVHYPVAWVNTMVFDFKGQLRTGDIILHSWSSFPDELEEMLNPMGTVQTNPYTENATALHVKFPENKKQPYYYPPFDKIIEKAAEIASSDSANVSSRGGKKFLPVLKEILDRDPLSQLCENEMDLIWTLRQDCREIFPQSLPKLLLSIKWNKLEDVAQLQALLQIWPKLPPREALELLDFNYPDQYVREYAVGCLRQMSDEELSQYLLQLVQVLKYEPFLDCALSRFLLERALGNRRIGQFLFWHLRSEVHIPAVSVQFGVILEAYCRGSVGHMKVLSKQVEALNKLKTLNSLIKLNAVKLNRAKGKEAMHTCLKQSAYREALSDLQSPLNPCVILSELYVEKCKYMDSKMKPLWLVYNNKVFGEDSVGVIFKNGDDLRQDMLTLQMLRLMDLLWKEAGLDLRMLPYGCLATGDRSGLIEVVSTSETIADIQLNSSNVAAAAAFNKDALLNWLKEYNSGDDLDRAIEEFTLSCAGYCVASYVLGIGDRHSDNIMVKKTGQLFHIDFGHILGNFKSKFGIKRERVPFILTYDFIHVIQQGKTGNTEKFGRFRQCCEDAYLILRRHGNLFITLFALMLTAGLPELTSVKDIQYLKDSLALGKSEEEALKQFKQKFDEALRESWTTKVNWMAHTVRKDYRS

`C#Cc1cccc2nc([C@H](C)NC(=O)c3c(N)nn4cccnc34)n(C)c(=O)c12`: the IC50 was in the range of 500 to 1000 nM against PIK3CB (Human), 1000 to 5000 nM against PIK3CD (Human) [1], 500 to 1000 nM against PIK3CG (human) and 1 to 100 nM on PIK3CD (Human) [2].

Consider `C[C@H](NC(=O)c1c(N)nn2cccnc12)c1cc2cccc(C#CCN3CCCC3=O)c2c(=O)n1-c1ccccc1`, for which the IC50 against PIK3CB (Human) lay within 1000 to 5000 nM; at PIK3CD (Human) [1], 1 to 500 nM; against PIK3CG (human) it was 1 to 100 nM; against PIK3CD (Human) [2] it was 1 to 100 nM.

For the compound `Cc1csc(C#Cc2cccc3cc([C@H](C)NC(=O)c4c(N)nn5cccnc45)n(-c4ccccc4)c(=O)c23)n1`, the half-maximal inhibitory concentration (IC50) was in the range of 5000 to 10000 nM against PIK3CB (Human), 5000 to 10000 nM against PIK3CD (Human) [1], 100 to 500 nM against PIK3CG (human) and 100 to 500 nM on PIK3CD (Human) [2].

On to `C[C@H](NC(=O)c1c(N)nn2cccnc12)c1cc2cccc(C#Cc3ccn[nH]3)c2c(=O)n1-c1ccccc1`, for which the IC50 against PIK3CB (Human) is 5000 to 10000 nM; against PIK3CD (Human) [1], 5000 to 10000 nM; at PIK3CG (human), 100 to 500 nM; on PIK3CD (Human) [2], 100 to 500 nM.

On to `C#Cc1cccc2nc([C@H](C)NC(=O)c3c(N)nn4cccnc34)n(-c3ccc(F)c(F)c3)c(=O)c12`, for which the IC50 was in the range of 5000 to 10000 nM at PIK3CB (Human), 5000 to 10000 nM against PIK3CD (Human) [1], 100 to 500 nM at PIK3CG (human) and 100 to 500 nM against PIK3CD (Human) [2].

For `C[C@H](NC(=O)c1cnn2cccnc12)c1cc2cccc(C#Cc3cnn(C)c3)c2c(=O)n1-c1ccccc1`, the IC50 at PIK3CB (Human) lay in the range of 5000 to 10000 nM; against PIK3CD (Human) [1] it was 5000 to 10000 nM; at PIK3CG (human) it was 100 to 500 nM; at PIK3CD (Human) [2], 1000 to 10000 nM.

Consider `Cc1ccc(C#Cc2cccc3cc([C@H](C)NC(=O)c4c(N)nn5cccnc45)n(-c4ccccc4)c(=O)c23)cn1`, for which the IC50 on PIK3CB (Human) fell in the range of 5000 to 10000 nM; against PIK3CD (Human) [1] it was 5000 to 10000 nM; against PIK3CG (human), 1 to 100 nM; against PIK3CD (Human) [2], 500 to 1000 nM.

Regarding `C[C@H](NC(=O)c1c(N)nn2cccnc12)c1cc2cccc(C#CC3(O)CN4CCC3CC4)c2c(=O)n1-c1ccccc1` (some centres not stated), the IC50 lay in the range of 5000 to 10000 nM at PIK3CB (Human), 5000 to 10000 nM on PIK3CD (Human) [1], 500 to 1000 nM against PIK3CG (human) and 1000 to 10000 nM against PIK3CD (Human) [2].

`CC#Cc1cccc2nc([C@H](C)NC(=O)c3c(N)nn4cccnc34)n(-c3ccccc3)c(=O)c12`: the IC50 at PIK3CB (Human) lay in the range of 1000 to 5000 nM; against PIK3CD (Human) [1] it was 500 to 1000 nM; against PIK3CG (human), 1 to 100 nM; on PIK3CD (Human) [2] it was 1 to 100 nM.

With `C[C@H](NC(=O)c1c(N)nn2cccnc12)c1cc2cccc(C#CCN3CCOCC3)c2c(=O)n1-c1ccccc1`, the IC50 against PIK3CB (Human) fell in the range of 5000 to 10000 nM; against PIK3CD (Human) [1] it was 5000 to 10000 nM; against PIK3CG (human), 100 to 500 nM; against PIK3CD (Human) [2], 1000 to 10000 nM.

With `COc1ccc(C#Cc2cccc3cc([C@H](C)NC(=O)c4c(N)nn5cccnc45)n(-c4ccccc4)c(=O)c23)cn1`, the IC50 against PIK3CB (Human) was 5000 to 10000 nM; against PIK3CD (Human) [1] it was 5000 to 10000 nM; on PIK3CG (human), 100 to 500 nM; at PIK3CD (Human) [2], 500 to 1000 nM.

Consider `C[C@H](NC(=O)c1c(N)nn2cccnc12)c1cc2cccc(NC(=O)c3cnn(C)c3)c2c(=O)n1-c1ccccc1`, for which the IC50 against PIK3CB (Human) was 5000 to 10000 nM; against PIK3CD (Human) [1] it was 5000 to 10000 nM; against PIK3CG (human) it was 1000 to 5000 nM; against PIK3CD (Human) [2] it was 1000 to 10000 nM.

Consider `Cc1ncc(C#Cc2cccc3cc([C@H](C)NC(=O)c4c(N)nn5cccnc45)n(-c4ccccc4)c(=O)c23)n1C`, for which the IC50 on PIK3CB (Human) lay within 5000 to 10000 nM; against PIK3CD (Human) [1], 5000 to 10000 nM; at PIK3CG (human), 1 to 100 nM; on PIK3CD (Human) [2], 500 to 1000 nM.

Regarding `C[C@H](NC(=O)c1c(N)nn2cccnc12)c1cc2cccc(C#CC3CNC3)c2c(=O)n1-c1ccccc1`, the half-maximal inhibitory concentration (IC50) on PIK3CB (Human) is 5000 to 10000 nM; against PIK3CD (Human) [1], 1000 to 5000 nM; on PIK3CG (human), 500 to 1000 nM; on PIK3CD (Human) [2] it was 1000 to 10000 nM.

Regarding `C[C@H](NC(=O)c1c(N)nn2cccnc12)c1cc2cccc(C#CCO)c2c(=O)n1-c1ccccc1`, the IC50 against PIK3CB (Human) fell in the range of 1000 to 5000 nM; against PIK3CD (Human) [1] it was 500 to 1000 nM; against PIK3CG (human), 1 to 100 nM; against PIK3CD (Human) [2], 1 to 100 nM.

As for `C[C@H](NC(=O)c1c(N)nn2cccnc12)c1cc2cccc(C#Cc3ccncc3)c2c(=O)n1-c1ccccc1`, the IC50 fell in the range of 5000 to 10000 nM against PIK3CB (Human), 5000 to 10000 nM at PIK3CD (Human) [1], 100 to 500 nM at PIK3CG (human) and 100 to 500 nM against PIK3CD (Human) [2].

For `C[C@H](NC(=O)c1c(N)nn2cccnc12)c1cc2cccc(C#Cc3ccnn3C)c2c(=O)n1-c1ccccc1`, the half-inhibitory concentration (IC50) fell in the range of 5000 to 10000 nM against PIK3CB (Human), 5000 to 10000 nM against PIK3CD (Human) [1], 100 to 500 nM on PIK3CG (human) and 500 to 1000 nM on PIK3CD (Human) [2].

Turning to `C#Cc1cccc2nc([C@H](C)NC(=O)c3nccnc3N)n(-c3ccc(F)cc3)c(=O)c12`, the IC50 against PIK3CB (Human) was 1000 to 5000 nM; against PIK3CD (Human) [1] it was 1000 to 5000 nM; against PIK3CG (human), 1 to 100 nM; at PIK3CD (Human) [2], 1 to 100 nM.

As for `C[C@H](NC(=O)c1c(N)nn2cccnc12)c1nc2cccc(C#Cc3cnn(C)c3)c2c(=O)n1C`, the IC50 at PIK3CB (Human) was 1000 to 5000 nM; on PIK3CD (Human) [1] it was 5000 to 10000 nM; at PIK3CG (human), 1000 to 5000 nM; against PIK3CD (Human) [2], 500 to 1000 nM.

Turning to `C[C@H](NC(=O)c1c(N)nn2cccnc12)c1cc2cccc(C#CC3CC3)c2c(=O)n1C1CC1`, the IC50 at PIK3CB (Human) lay within 1000 to 5000 nM; against PIK3CD (Human) [1], 1000 to 5000 nM; at PIK3CG (human), 1000 to 5000 nM; on PIK3CD (Human) [2], 100 to 500 nM.

Regarding `CC(C)C#Cc1cccc2nc([C@H](C)NC(=O)c3c(N)nn4cccnc34)n(-c3ccccc3)c(=O)c12`, the IC50 against PIK3CB (Human) was in the range of 5000 to 10000 nM; at PIK3CD (Human) [1], 5000 to 10000 nM; against PIK3CG (human) it was 500 to 1000 nM; at PIK3CD (Human) [2], 500 to 1000 nM.

Consider `Cc1scnc1C#Cc1cccc2cc([C@H](C)NC(=O)c3c(N)nn4cccnc34)n(-c3ccccc3)c(=O)c12`, for which the IC50 at PIK3CB (Human) is 5000 to 10000 nM; at PIK3CD (Human) [1], 5000 to 10000 nM; at PIK3CG (human), 100 to 500 nM; against PIK3CD (Human) [2] it was 100 to 500 nM.

Turning to `C[C@H](NC(=O)c1c(N)nn2cccnc12)c1cc2cccc(C#CC(C)(C)C)c2c(=O)n1-c1ccccc1`, the IC50 at PIK3CB (Human) was 5000 to 10000 nM; against PIK3CD (Human) [1], 5000 to 10000 nM; against PIK3CG (human), 1000 to 5000 nM; against PIK3CD (Human) [2], 1000 to 10000 nM.

Turning to `C[C@H](NC(=O)c1c(N)nn2cccnc12)c1cc2ccc3ccccc3c2c(=O)n1-c1ccccc1`, the IC50 fell in the range of 5000 to 10000 nM at PIK3CB (Human), 5000 to 10000 nM against PIK3CD (Human) [1], 500 to 1000 nM on PIK3CG (human) and 1000 to 10000 nM at PIK3CD (Human) [2].

For the compound `Cc1c(C#Cc2cccc3nc([C@H](C)NC(=O)c4c(N)nn5cccnc45)n(-c4ccccc4)c(=O)c23)cnn1C`, the IC50 against PIK3CB (Human) fell in the range of 5000 to 10000 nM; against PIK3CD (Human) [1], 5000 to 10000 nM; at PIK3CG (human), 100 to 500 nM; against PIK3CD (Human) [2], 100 to 500 nM.

Consider `Cc1ncsc1C#Cc1cccc2cc([C@H](C)NC(=O)c3c(N)nn4cccnc34)n(-c3ccccc3)c(=O)c12`, for which the IC50 was in the range of 5000 to 10000 nM against PIK3CB (Human), 5000 to 10000 nM at PIK3CD (Human) [1], 1000 to 5000 nM on PIK3CG (human) and 1000 to 10000 nM on PIK3CD (Human) [2].

For `C[C@H](NC(=O)c1c(N)nn2cccnc12)c1cc2cccc(C#Cc3ccc(=O)n(C)c3)c2c(=O)n1-c1ccccc1`, the IC50 against PIK3CB (Human) is 5000 to 10000 nM; against PIK3CD (Human) [1] it was 1000 to 5000 nM; against PIK3CG (human) it was 1 to 100 nM; on PIK3CD (Human) [2] it was 100 to 500 nM.

`C[C@H](NC(=O)c1c(N)nn2cccnc12)c1cc2cccc(C#CCN(C)C)c2c(=O)n1-c1ccccc1`: the IC50 lay within 5000 to 10000 nM against PIK3CB (Human), 5000 to 10000 nM at PIK3CD (Human) [1], 500 to 1000 nM against PIK3CG (human) and 100 to 500 nM on PIK3CD (Human) [2].
